Four molecules from ChEMBL document CHEMBL5614370, “Data-oriented protein kinase drug discovery” (Eur J Med Chem, 2024) can be followed below.

Structures are written as SMILES.

In experiment [1] the target is Hepatocyte growth factor receptor (Homo sapiens, UniProt P08581). The experiment in a line: Inhibition of HGF receptor (unknown origin).
Experiment [2] concerns the target Phosphatidylinositol 4,5-bisphosphate 3-kinase catalytic subunit alpha isoform (Homo sapiens, UniProt P42336). Kind of experiment: Inhibition of PI3Kalpha (unknown origin).
The target in experiment [3] is Macrophage colony-stimulating factor 1 receptor (Homo sapiens, UniProt P07333). Kind of experiment: Inhibition of CSF1R (unknown origin).
Macrophage colony-stimulating factor 1 receptor, sequence (P07333 whole entry): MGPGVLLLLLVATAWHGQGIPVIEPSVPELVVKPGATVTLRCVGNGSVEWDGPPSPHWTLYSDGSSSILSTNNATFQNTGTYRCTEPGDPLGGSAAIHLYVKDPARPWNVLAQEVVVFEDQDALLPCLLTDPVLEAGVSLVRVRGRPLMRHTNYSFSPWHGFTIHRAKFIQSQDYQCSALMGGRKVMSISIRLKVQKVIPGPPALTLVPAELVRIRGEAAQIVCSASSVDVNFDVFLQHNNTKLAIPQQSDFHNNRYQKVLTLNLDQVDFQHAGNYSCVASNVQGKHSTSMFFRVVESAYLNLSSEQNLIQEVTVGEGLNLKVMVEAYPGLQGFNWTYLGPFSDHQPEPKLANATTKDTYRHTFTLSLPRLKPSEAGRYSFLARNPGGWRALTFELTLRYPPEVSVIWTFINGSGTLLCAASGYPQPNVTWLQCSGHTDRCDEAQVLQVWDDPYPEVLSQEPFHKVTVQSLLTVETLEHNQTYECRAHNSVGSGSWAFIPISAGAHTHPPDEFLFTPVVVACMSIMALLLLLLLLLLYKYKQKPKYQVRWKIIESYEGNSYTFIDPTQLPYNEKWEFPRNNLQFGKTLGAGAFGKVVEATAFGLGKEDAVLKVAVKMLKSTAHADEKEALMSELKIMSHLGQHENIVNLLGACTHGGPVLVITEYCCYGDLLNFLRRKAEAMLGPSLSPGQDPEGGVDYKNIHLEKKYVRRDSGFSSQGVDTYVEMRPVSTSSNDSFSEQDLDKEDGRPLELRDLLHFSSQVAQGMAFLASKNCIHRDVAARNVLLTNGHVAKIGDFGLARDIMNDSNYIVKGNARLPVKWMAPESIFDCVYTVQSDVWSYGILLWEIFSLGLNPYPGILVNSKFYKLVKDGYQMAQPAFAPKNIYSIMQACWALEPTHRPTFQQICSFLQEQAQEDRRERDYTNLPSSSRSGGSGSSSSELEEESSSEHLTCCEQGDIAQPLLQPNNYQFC

Phosphatidylinositol 4,5-bisphosphate 3-kinase catalytic subunit alpha isoform, sequence (P42336 whole entry, canonical isoform): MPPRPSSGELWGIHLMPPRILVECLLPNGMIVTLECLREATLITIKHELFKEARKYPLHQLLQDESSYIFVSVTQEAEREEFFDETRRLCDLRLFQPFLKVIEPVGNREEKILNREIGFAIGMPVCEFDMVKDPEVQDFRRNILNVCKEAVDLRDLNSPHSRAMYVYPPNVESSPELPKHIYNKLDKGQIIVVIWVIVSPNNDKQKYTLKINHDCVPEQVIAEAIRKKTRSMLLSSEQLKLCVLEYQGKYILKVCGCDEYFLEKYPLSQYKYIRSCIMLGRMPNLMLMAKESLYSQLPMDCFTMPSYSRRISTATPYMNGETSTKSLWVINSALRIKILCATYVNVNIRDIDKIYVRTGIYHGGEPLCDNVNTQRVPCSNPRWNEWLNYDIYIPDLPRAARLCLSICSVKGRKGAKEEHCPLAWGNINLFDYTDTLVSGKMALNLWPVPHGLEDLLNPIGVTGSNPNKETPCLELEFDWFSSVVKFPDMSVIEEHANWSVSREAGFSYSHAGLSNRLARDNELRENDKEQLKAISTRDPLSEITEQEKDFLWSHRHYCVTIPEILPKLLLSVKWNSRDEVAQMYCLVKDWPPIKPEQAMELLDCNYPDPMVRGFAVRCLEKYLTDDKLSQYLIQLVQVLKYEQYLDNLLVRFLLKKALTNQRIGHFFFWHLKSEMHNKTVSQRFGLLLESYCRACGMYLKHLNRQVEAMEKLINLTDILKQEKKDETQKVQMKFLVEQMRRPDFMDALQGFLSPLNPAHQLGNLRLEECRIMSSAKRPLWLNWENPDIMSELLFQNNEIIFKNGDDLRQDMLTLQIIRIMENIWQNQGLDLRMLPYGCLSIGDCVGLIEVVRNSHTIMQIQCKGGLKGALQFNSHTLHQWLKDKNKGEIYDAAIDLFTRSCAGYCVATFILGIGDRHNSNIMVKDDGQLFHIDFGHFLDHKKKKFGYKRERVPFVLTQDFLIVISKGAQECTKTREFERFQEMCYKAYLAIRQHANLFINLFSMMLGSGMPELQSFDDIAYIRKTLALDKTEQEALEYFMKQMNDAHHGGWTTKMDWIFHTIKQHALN
Hepatocyte growth factor receptor, sequence (P08581 whole entry, canonical isoform): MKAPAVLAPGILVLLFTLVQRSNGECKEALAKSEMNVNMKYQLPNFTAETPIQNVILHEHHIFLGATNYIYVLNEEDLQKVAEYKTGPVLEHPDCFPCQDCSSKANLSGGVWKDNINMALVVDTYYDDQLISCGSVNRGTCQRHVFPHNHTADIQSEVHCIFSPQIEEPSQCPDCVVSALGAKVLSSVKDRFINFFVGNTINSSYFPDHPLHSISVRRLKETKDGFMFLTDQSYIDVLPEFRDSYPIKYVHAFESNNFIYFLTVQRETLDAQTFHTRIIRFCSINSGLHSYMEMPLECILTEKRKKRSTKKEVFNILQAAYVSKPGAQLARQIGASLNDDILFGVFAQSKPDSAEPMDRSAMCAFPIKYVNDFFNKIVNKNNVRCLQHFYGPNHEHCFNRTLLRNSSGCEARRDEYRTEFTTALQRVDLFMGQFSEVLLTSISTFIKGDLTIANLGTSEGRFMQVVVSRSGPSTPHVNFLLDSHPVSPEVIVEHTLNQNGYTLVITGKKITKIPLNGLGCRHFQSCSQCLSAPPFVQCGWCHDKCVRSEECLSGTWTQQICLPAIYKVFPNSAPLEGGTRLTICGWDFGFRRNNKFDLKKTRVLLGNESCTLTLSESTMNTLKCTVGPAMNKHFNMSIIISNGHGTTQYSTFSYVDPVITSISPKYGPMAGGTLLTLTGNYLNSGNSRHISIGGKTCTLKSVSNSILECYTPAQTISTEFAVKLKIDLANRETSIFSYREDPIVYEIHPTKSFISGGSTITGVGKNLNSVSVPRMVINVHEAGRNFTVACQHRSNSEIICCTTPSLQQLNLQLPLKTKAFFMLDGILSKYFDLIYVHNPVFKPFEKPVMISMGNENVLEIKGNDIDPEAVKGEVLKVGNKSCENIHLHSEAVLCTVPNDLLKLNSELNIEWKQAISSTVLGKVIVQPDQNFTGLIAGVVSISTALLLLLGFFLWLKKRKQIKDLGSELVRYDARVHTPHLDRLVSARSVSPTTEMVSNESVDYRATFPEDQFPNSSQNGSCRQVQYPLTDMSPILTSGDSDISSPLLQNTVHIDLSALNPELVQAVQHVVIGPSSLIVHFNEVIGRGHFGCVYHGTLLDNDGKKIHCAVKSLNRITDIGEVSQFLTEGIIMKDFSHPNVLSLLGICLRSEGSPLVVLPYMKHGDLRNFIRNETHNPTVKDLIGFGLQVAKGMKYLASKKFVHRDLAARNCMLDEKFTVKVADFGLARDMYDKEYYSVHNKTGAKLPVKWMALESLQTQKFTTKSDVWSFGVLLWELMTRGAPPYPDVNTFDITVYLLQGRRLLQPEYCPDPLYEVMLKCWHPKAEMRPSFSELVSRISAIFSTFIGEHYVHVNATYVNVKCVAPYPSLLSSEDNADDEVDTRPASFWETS

`C1=CN(c2ccccc2)CC(CNc2ccc(Oc3ccncc3)cc2)=C1`: in experiment [1], the half-maximal inhibitory concentration (IC50) was 8.91 nM. This counts as single-digit nanomolar.
As for `c1n[nH]c(-c2nc3c(s2)CCOc2cc(C4CNC4)ccc2-3)n1`, the half-inhibitory concentration (IC50) in experiment [2] was 1.91 nM.
As for `C1=C(c2cc(C3CNCNC3)ccc2NCc2ncc[nH]2)CCCC1`, the IC50 in experiment [3] is 2.51 nM.
Take `c1n[nH]c(-c2nc3c(s2)CCOc2cc(-c4cn[nH]c4)ccc2-3)n1`: the 50% inhibitory concentration (IC50) in experiment [2] is 0.269 nM. In other words, the sub-nanomolar range.

For orientation: IC50 means the concentration needed to halve the response being measured. A low value points to greater potency.
